Values joined by “and” are separate entries in the source; they are usually repeats but may differ in a detail not shown here. Equal values may be shown once. Inconclusive results and toxic doses are left out.
Tested on: L1210 leukemia ip in BDF1 mice, survival T/C
Assay: NCI In Vivo Anticancer Drug Screen. Data for tumor model L1210 Leukemia (intraperitoneal) in B6D2F1 (BDF1) mice
Conditions: endpoint: mean survival time, higher = longer survival
Outline: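 Mice bearing the transplanted tumor received compound or vehicle. Survival of the treated group was divided by that of the vehicle-treated control group to give the ratio.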

[1] = dose: 100.0 mg/kg/injection, schedule: Q04DX003 (ip), vehicle: saline
[2] = dose: 200.0 mg/kg/injection, schedule: Q04DX003 (ip), vehicle: saline
[3] = dose: 100.0 mg/kg/injection, schedule: Q01DX009 (ip), vehicle: saline
[4] = dose: 200.0 mg/kg/injection, schedule: Q01DX009 (ip), vehicle: saline
[5] = dose: 400.0 mg/kg/injection, schedule: Q01DX009 (ip), vehicle: saline
[6] = dose: 400.0 mg/kg/injection, schedule: Q04DX003 (ip), vehicle: saline
[7] = dose: 100.0 mg/kg/injection, schedule: Q01DX009 (ip), vehicle: saline with Tween-80
[8] = dose: 100.0 mg/kg/injection, schedule: Q04DX003 (ip), vehicle: saline with Tween-80
[9] = dose: 200.0 mg/kg/injection, schedule: Q01DX009 (ip), vehicle: saline with Tween-80
[10] = dose: 200.0 mg/kg/injection, schedule: Q04DX003 (ip), vehicle: saline with Tween-80
[11] = dose: 400.0 mg/kg/injection, schedule: Q01DX009 (ip), vehicle: saline with Tween-80
[12] = dose: 400.0 mg/kg/injection, schedule: Q04DX003 (ip), vehicle: saline with Tween-80

For `NC(=NCc1ccccc1)c1ccc(N=C(N)c2ccc(C(N)=Nc3ccc(C(N)=NCc4ccccc4)cc3)cc2)cc1`, the T/C (dose: 5.0 mg/kg/injection, schedule: Q01DX001 (ip), vehicle: water) was 95 % of control, the T/C (dose: 6.25 mg/kg/injection, schedule: Q01DX009 (ip), vehicle: saline) was 119 % of control and the T/C (dose: 10.0 mg/kg/injection, schedule: Q01DX001 (ip), vehicle: water) was 96 % of control. For the same molecule, the T/C (dose: 12.5 mg/kg/injection, schedule: Q01DX009 (ip), vehicle: saline) was 153 % of control, the T/C (dose: 12.5 mg/kg/injection, schedule: Q01DX015 (oral), vehicle: water) was 95 % of control and the T/C (dose: 15.0 mg/kg/injection, schedule: Q01DX001 (ip), vehicle: water) was 98 % of control. For the same molecule, the T/C (dose: 18.0 mg/kg/injection, schedule: Q01DX015 (ip), vehicle: water) was 249 % of control, the T/C (dose: 20.0 mg/kg/injection, schedule: Q01DX001 (ip), vehicle: water) was 107 % of control and the T/C (dose: 25.0 mg/kg/injection, schedule: Q01DX009 (ip), vehicle: saline) was 114 % of control. The T/C (dose: 25.0 mg/kg/injection, schedule: Q01DX015 (ip), vehicle: water) was 222 % of control and 256 % of control, the T/C (dose: 25.0 mg/kg/injection, schedule: Q01DX015 (oral), vehicle: water) was 91 % of control and the T/C (dose: 50.0 mg/kg/injection, schedule: Q01DX015 (oral), vehicle: water) was 98 % of control. For the same molecule, the T/C (dose: 100.0 mg/kg/injection, schedule: Q01DX015 (oral), vehicle: water) was 98 % of control.

With `O=C(COc1ccc(Br)cc1Br)OCCBr` the T/C (dose: 100.0 mg/kg/injection, schedule: Q01DX001 (ip), vehicle: saline) was 97 % of control, the T/C (dose: 200.0 mg/kg/injection, schedule: Q01DX001 (ip), vehicle: saline) was 105 % of control and the T/C (dose: 400.0 mg/kg/injection, schedule: Q01DX001 (ip), vehicle: saline) was 100 % of control.

`CCOc1ccc(-n2c(O)c(N=Nc3ccc(Cl)cc3)c(=O)n(-c3ccc(OC)cc3)c2=S)cc1` was tested, and the T/C (dose: 100.0 mg/kg/injection, schedule: Q01DX001 (ip), vehicle: Klucel (hydroxypropylcellulose) (HPC)) was 96 % of control, the T/C (dose: 200.0 mg/kg/injection, schedule: Q01DX001 (ip), vehicle: Klucel (hydroxypropylcellulose) (HPC)) was 98 % of control and the T/C (dose: 400.0 mg/kg/injection, schedule: Q01DX001 (ip), vehicle: Klucel (hydroxypropylcellulose) (HPC)) was 96 % of control.

With `[N-]=[N+]=CC(=O)OCC(N)C(=O)O` (configuration not stated) the T/C (dose: 100.0 mg/kg/injection, schedule: Q01DX009 (ip), vehicle: water) was 103 % of control, the T/C (dose: 200.0 mg/kg/injection, schedule: Q01DX009 (ip), vehicle: water) was 105 % of control and the T/C (dose: 400.0 mg/kg/injection, schedule: Q01DX009 (ip), vehicle: water) was 89 % of control.

For `C#CC[N+](C)(C)CC#C`, the T/C (dose: 50.0 mg/kg/injection, schedule: Q04DX003 (ip), vehicle: saline) was 102 % of control, the T/C [1] was 94 % of control and the T/C [2] was 93 % of control.

`CCOc1ccccc1NC(=O)c1cc2ccccc2cc1O` was tested, and the T/C [3] was 102 % of control, the T/C [1] was 98 % of control and the T/C [4] was 109 % of control. The T/C [2] was 102 % of control, the T/C [5] was 102 % of control and the T/C [6] was 100 % of control.

For `CC(=O)CC(=O)Nc1ccc(C)c(C)c1`, the T/C [3] was 102 % of control, the T/C [4] was 102 % of control and the T/C [5] was 93 % of control.

In the case of `COC(=O)CCN1CCC1`, the T/C (dose: 100.0 mg/kg/injection, schedule: Q04DX002 (ip), vehicle: saline) is reported as 97 % of control, the T/C (dose: 200.0 mg/kg/injection, schedule: Q04DX002 (ip), vehicle: saline) is reported as 101 % of control and the T/C (dose: 400.0 mg/kg/injection, schedule: Q04DX002 (ip), vehicle: saline) is reported as 97 % of control.

For `BrC1(Br)C2CC/C=C\CCC21` (configuration not stated), the T/C (dose: 50.0 mg/kg/injection, schedule: Q01DX009 (ip), vehicle: saline with Tween-80) was 102 % of control and the T/C [7] was 94 % of control.

With `CCCCCCCCCCCC(CCCCCCCC)CCCCCCCC` the T/C [1] was 94 % of control, the T/C [2] was 93 % of control and the T/C [6] was 100 % of control.

`C[CH2][Sb]([CH2]C)([CH2]C)([O]C(C)=O)[O]C(C)=O` was tested, and the T/C (dose: 5.0 mg/kg/injection, schedule: Q04DX002 (ip), vehicle: saline with Tween-80) was 97 % of control, the T/C (dose: 10.0 mg/kg/injection, schedule: Q04DX002 (ip), vehicle: saline with Tween-80) was 97 % of control and the T/C (dose: 20.0 mg/kg/injection, schedule: Q04DX002 (ip), vehicle: saline with Tween-80) was 104 % of control.

`O=[N+]([O-])c1cc(Cl)cc2c1-c1c(Cl)cc(Cl)cc1/C2=N/O` was tested, and the T/C (dose: 25.0 mg/kg/injection, schedule: Q01DX009 (ip), vehicle: Klucel (hydroxypropylcellulose) (HPC)) was 106 % of control, the T/C (dose: 50.0 mg/kg/injection, schedule: Q01DX009 (ip), vehicle: Klucel (hydroxypropylcellulose) (HPC)) was 94 % of control and the T/C (dose: 100.0 mg/kg/injection, schedule: Q04DX003 (ip), vehicle: Klucel (hydroxypropylcellulose) (HPC)) was 101 % of control.

With `CCCCC(=O)N/N=C\c1ccc(N(CC)CC)cc1` the T/C (dose: 100.0 mg/kg/injection, schedule: Q01DX001 (ip), vehicle: carboxymethylcellulose (CMC)) was 95 % of control, the T/C (dose: 200.0 mg/kg/injection, schedule: Q01DX001 (ip), vehicle: carboxymethylcellulose (CMC)) was 87 % of control and the T/C (dose: 400.0 mg/kg/injection, schedule: Q01DX001 (ip), vehicle: carboxymethylcellulose (CMC)) was 87 % of control.

For `Brc1ccc(Oc2ccccc2)cc1`, the T/C [7] was 101 % of control, the T/C [8] was 102 % of control and the T/C [9] was 95 % of control. For the same molecule, the T/C [10] was 97 % of control, the T/C [11] was 97 % of control and the T/C [12] was 108 % of control.

In the case of `CN(C)C1C(CO)C(CO)C1(C)C` (configuration not stated), the T/C (dose: 100.0 mg/kg/injection, schedule: Q01DX001 (ip), vehicle: saline with Tween-80) is reported as 102 % of control and the T/C (dose: 200.0 mg/kg/injection, schedule: Q01DX001 (ip), vehicle: saline with Tween-80) is reported as 97 % of control.

In the case of `C1CCN(SN2CCCCC2)CC1`, the T/C [3] is reported as 100 % of control and the T/C [4] is reported as 102 % of control.

In the case of `Cc1n[nH]c(=S)n1C`, the T/C [1] is reported as 108 % of control and the T/C [2] is reported as 113 % of control.

In the case of `C=CCNc1cc(NN)nn2nnnc12`, the T/C (dose: 100.0 mg/kg/injection, schedule: Q04DX002 (ip), vehicle: Klucel (hydroxypropylcellulose) (HPC)) is reported as 108 % of control, the T/C (dose: 200.0 mg/kg/injection, schedule: Q04DX002 (ip), vehicle: Klucel (hydroxypropylcellulose) (HPC)) is reported as 104 % of control and the T/C (dose: 400.0 mg/kg/injection, schedule: Q04DX002 (ip), vehicle: Klucel (hydroxypropylcellulose) (HPC)) is reported as 123 % of control.

For `CN1CCN(C(=S)[S-])CC1.CN1CCN(C(=S)[S-])CC1.[Zn]`, the T/C (dose: 2.5 mg/kg/injection, schedule: Q01DX009 (ip), vehicle: acetone) was 96 % of control, the T/C (dose: 5.0 mg/kg/injection, schedule: Q01DX009 (ip), vehicle: acetone) was 96 % of control and the T/C (dose: 5.0 mg/kg/injection, schedule: Q04DX003 (ip), vehicle: acetone) was 100 % of control. For the same molecule, the T/C (dose: 10.0 mg/kg/injection, schedule: Q01DX001 (ip), vehicle: saline) was 91 % of control, the T/C (dose: 10.0 mg/kg/injection, schedule: Q01DX009 (ip), vehicle: acetone) was 108 % of control and the T/C (dose: 10.0 mg/kg/injection, schedule: Q04DX003 (ip), vehicle: acetone) was 92 % of control. The T/C (dose: 20.0 mg/kg/injection, schedule: Q01DX001 (ip), vehicle: saline) was 91 % of control and the T/C (dose: 20.0 mg/kg/injection, schedule: Q04DX003 (ip), vehicle: acetone) was 92 % of control.

For `COc1ccc(C2C=C(C)Oc3c2c(=O)oc2ccccc32)cc1OC` (configuration not stated), the T/C (dose: 6.25 mg/kg/injection, schedule: Q01DX009 (ip), vehicle: water) was 96 % of control, the T/C (dose: 12.5 mg/kg/injection, schedule: Q01DX009 (ip), vehicle: water) was 98 % of control and the T/C (dose: 25.0 mg/kg/injection, schedule: Q01DX009 (ip), vehicle: water) was 100 % of control and 91 % of control. The T/C (dose: 50.0 mg/kg/injection, schedule: Q01DX009 (ip), vehicle: water) was 86 % of control.

In the case of `OCC(O)C(O)C(O)C(O)C(O)c1nc2ccccc2[nH]1` (configuration not stated), the T/C [7] is reported as 101 % of control, the T/C [8] is reported as 97 % of control and the T/C [9] is reported as 98 % of control. For the same molecule, the T/C [10] was 93 % of control, the T/C [11] was 96 % of control and the T/C [12] was 103 % of control.

In the case of `Cc1ccc(N=Nc2c(C)nc(N)nc2C)c(C)c1`, the T/C (dose: 75.0 mg/kg/injection, schedule: Q01DX001 (ip), vehicle: other) is reported as 98 % of control, the T/C (dose: 150.0 mg/kg/injection, schedule: Q01DX001 (ip), vehicle: other) is reported as 98 % of control and the T/C (dose: 300.0 mg/kg/injection, schedule: Q01DX001 (ip), vehicle: other) is reported as 98 % of control.

Reference: PubChem BioAssay AID248 (DTP/NCI, 2004)
